Laboratory results from ChEMBL document CHEMBL1629634, “Postantibiotic effect of tigecycline against 14 gram-positive organisms” (Antimicrob Agents Chemother, 2009).
≈ marks a conversion by molar mass, not a printed value.

Experiments:
Staphylococcus aureus [1] = test: Antibacterial activity against vancomycin-sensitive methicillin-resistant Staphylococcus aureus assessed as post-antibiotic sub-MIC effect at 0.2 times MIC concentration pretreated with 10 times MIC concentration for 1 hr followed by 1:1000 dilution by viable plate count method; assay type: functional
Enterococcus faecalis [2] = test: Antibacterial activity against vancomycin-sensitive Enterococcus faecalis assessed as post-antibiotic sub-MIC effect at 0.2 times MIC concentration pretreated with 10 times MIC concentration for 1 hr followed by 1:1000 dilution by viable plate count method; assay type: functional
Haemophilus influenzae [3] = test: Antibacterial activity against amoxicillin, clavulanate-resistant Haemophilus influenzae expressing beta-lactamase assessed as post-antibiotic sub-MIC effect at 0.2 times MIC concentration pretreated with 6 times MIC concentration for 1 hr followed by 1:1000 dilution by viable plate count method; assay type: functional
Enterobacter cloacae [4] = test: Antibacterial activity against Enterobacter cloacae assessed as post-antibiotic sub-MIC effect at 0.2 times MIC concentration pretreated with 10 times MIC concentration for 1 hr followed by 1:1000 dilution by viable plate count method; assay type: functional
Staphylococcus aureus [5] = test: Antibacterial activity against vancomycin-intermediate methicillin-resistant Staphylococcus aureus assessed as sub-MIC effect at 0.3 times MIC concentration incubated for 1 hr by viable plate count method; assay type: functional
Escherichia coli [6] = test: Antibacterial activity against Escherichia coli assessed as sub-MIC effect at 0.3 times MIC concentration incubated for 1 hr by viable plate count method; assay type: functional
Escherichia coli [7] = test: Antibacterial activity against Escherichia coli assessed as post-antibiotic sub-MIC effect at 0.3 times MIC concentration pretreated with 6 times MIC concentration for 1 hr followed by 1:1000 dilution by viable plate count method; assay type: functional
Acinetobacter baumannii [8] = test: Antibacterial activity against Acinetobacter baumannii assessed as post-antibiotic sub-MIC effect at 0.3 times MIC concentration pretreated with 10 times MIC concentration for 1 hr followed by 1:1000 dilution by viable plate count method; assay type: functional
Acinetobacter baumannii [9] = test: Antibacterial activity against Acinetobacter baumannii assessed as post-antibiotic sub-MIC effect at 0.3 times MIC concentration pretreated with 6 times MIC concentration for 1 hr followed by 1:1000 dilution by viable plate count method; assay type: functional
Streptococcus pneumoniae [10] = test: Antibacterial activity against penicillin-resistant Streptococcus pneumoniae assessed as sub-MIC effect at 0.4 times MIC concentration incubated for 1 hr by viable plate count method; assay type: functional
Staphylococcus aureus [11] = test: Antibacterial activity against vancomycin-sensitive methicillin-resistant Staphylococcus aureus assessed as sub-MIC effect at 0.4 times MIC concentration incubated for 1 hr by viable plate count method; assay type: functional
Enterococcus faecalis [12] = test: Antibacterial activity against vancomycin-resistant Enterococcus faecalis assessed as sub-MIC effect at 0.4 times MIC concentration incubated for 1 hr by viable plate count method; assay type: functional
Streptococcus pneumoniae [13] = test: Antibacterial activity against penicillin-intermediate Streptococcus pneumoniae assessed as post-antibiotic sub-MIC effect at 0.4 times MIC concentration pretreated with 10 times MIC concentration for 1 hr followed by 1:1000 dilution by viable plate count method; assay type: functional
Staphylococcus aureus [14] = test: Antibacterial activity against vancomycin-intermediate methicillin-resistant Staphylococcus aureus assessed as post-antibiotic sub-MIC effect at 0.4 times MIC concentration pretreated with 10 times MIC concentration for 1 hr followed by 1:1000 dilution by viable plate count method; assay type: functional
Enterococcus faecalis [15] = test: Antibacterial activity against vancomycin-resistant Enterococcus faecalis assessed as post-antibiotic sub-MIC effect at 0.4 times MIC concentration pretreated with 10 times MIC concentration for 1 hr followed by 1:1000 dilution by viable plate count method; assay type: functional
Haemophilus influenzae [16] = test: Antibacterial activity against amoxicillin, clavulanate-resistant Haemophilus influenzae expressing beta-lactamase assessed as post-antibiotic sub-MIC effect at 0.4 times MIC concentration pretreated with 10 times MIC concentration for 1 hr followed by 1:1000 dilution by viable plate count method; assay type: functional
Enterococcus faecalis [17] = test: Antibacterial activity against vancomycin-resistant Enterococcus faecalis assessed as post-antibiotic sub-MIC effect at 0.3 times MIC concentration pretreated with 10 times MIC concentration for 1 hr followed by 1:1000 dilution by viable plate count method; assay type: functional
Haemophilus influenzae [18] = test: Antibacterial activity against amoxicillin, clavulanate-resistant Haemophilus influenzae expressing beta-lactamase assessed as post-antibiotic sub-MIC effect at 0.3 times MIC concentration pretreated with 6 times MIC concentration for 1 hr followed by 1:1000 dilution by viable plate count method; assay type: functional
Streptococcus pneumoniae [19] = test: Antibacterial activity against penicillin-susceptible Streptococcus pneumoniae assessed as post-antibiotic sub-MIC effect at 0.2 times MIC concentration pretreated with 10 times MIC concentration for 1 hr followed by 1:1000 dilution by viable plate count method; assay type: functional
Acinetobacter baumannii [20] = test: Antibacterial activity against Acinetobacter baumannii assessed as sub-MIC effect at 0.2 times MIC concentration incubated for 1 hr by viable plate count method; assay type: functional
Klebsiella pneumoniae [21] = test: Antibacterial activity against Klebsiella pneumoniae assessed as sub-MIC effect at 0.2 times MIC concentration incubated for 1 hr by viable plate count method; assay type: functional
Escherichia coli [22] = test: Antibacterial activity against Escherichia coli assessed as sub-MIC effect at 0.2 times MIC concentration incubated for 1 hr by viable plate count method; assay type: functional
Streptococcus pneumoniae [23] = test: Antibacterial activity against penicillin-resistant Streptococcus pneumoniae assessed as sub-MIC effect at 0.2 times MIC concentration incubated for 1 hr by viable plate count method; assay type: functional
Streptococcus pneumoniae [24] = test: Antibacterial activity against penicillin-intermediate Streptococcus pneumoniae assessed as sub-MIC effect at 0.2 times MIC concentration incubated for 1 hr by viable plate count method; assay type: functional
Enterobacter cloacae [25] = test: Antibacterial activity against Enterobacter cloacae assessed as post antibiotic effect at 2 times MIC concentration incubated for 1 hr measured after 1:1000 dilution by viable plate count method; assay type: functional
Haemophilus influenzae [26] = test: Antibacterial activity against amoxicillin, clavulanate-resistant Haemophilus influenzae expressing beta-lactamase assessed as post antibiotic effect at 6 times MIC concentration incubated for 1 hr measured after 1:1000 dilution by viable plate count method; assay type: functional
Haemophilus influenzae [27] = test: Antibacterial activity against beta-lactamase deficient and ampicillin-resistant Haemophilus influenzae assessed as post antibiotic effect at 10 times MIC concentration incubated for 1 hr measured after 1:1000 dilution by viable plate count method; assay type: functional
Streptococcus pneumoniae [28] = test: Antibacterial activity against penicillin-resistant Streptococcus pneumoniae assessed as post antibiotic effect at 10 times MIC concentration incubated for 1 hr measured after 1:1000 dilution by viable plate count method; assay type: functional
Acinetobacter baumannii [29] = test: Antibacterial activity against multidrug-resistant Acinetobacter baumannii producing OXA-24 and OXA-51 beta-lactamases by macrodilution method; assay type: functional
Staphylococcus aureus [30] = test: Antibacterial activity against vancomycin-sensitive methicillin-resistant Staphylococcus aureus by macrodilution method; assay type: functional
Escherichia coli [31] = test: Antibacterial activity against Escherichia coli assessed as post-antibiotic sub-MIC effect at 0.4 times MIC concentration pretreated with 6 times MIC concentration for 1 hr followed by 1:1000 dilution by viable plate count method; assay type: functional
Acinetobacter baumannii [32] = test: Antibacterial activity against Acinetobacter baumannii assessed as post-antibiotic sub-MIC effect at 0.4 times MIC concentration pretreated with 10 times MIC concentration for 1 hr followed by 1:1000 dilution by viable plate count method; assay type: functional
Enterococcus faecalis [33] = test: Antibacterial activity against Enterococcus faecalis assessed as post antibiotic effect; assay type: functional
Klebsiella pneumoniae [34] = test: Antibacterial activity against Klebsiella pneumoniae assessed as post antibiotic effect; assay type: functional
[35] = Half life in patient serum at 100 mg, iv followed by 50 mg every 12 hrs after 60 mins post dose; assay type: ADME, organism-based; settings: human

`CN(C)c1cc(NC(=O)CNC(C)(C)C)c(O)c2c1C[C@H]1C[C@H]3[C@H](N(C)C)C(O)=C(C(N)=O)C(=O)[C@@]3(O)C(O)=C1C2=O` [TIGECYCLINE] showed a PAE (Staphylococcus aureus [1]) of 3.6 h, a PAE (Enterococcus faecalis [2]) of 5.3 h and a PAE (Haemophilus influenzae [3]) of 3.9 h. It also gave a PAE (Enterobacter cloacae [4]) of 3.6 h, a PAE (Staphylococcus aureus [5]) of 2.9 h and a PAE (Escherichia coli [6]) of 0 h. The PAE (Escherichia coli [7]) was 2.9 h, the PAE (Acinetobacter baumannii [8]) was 11.2 h and the PAE (Acinetobacter baumannii [9]) was 10.7 h. For the same compound, the PAE (Streptococcus pneumoniae [10]) was 0.7 h, the PAE (Staphylococcus aureus [11]) was 0.9 h and the PAE (Enterococcus faecalis [12]) was 0.4 h. It also gave a PAE (Streptococcus pneumoniae [13]) of 8.8 h, a PAE (Staphylococcus aureus [14]) of 10 h and a PAE (Enterococcus faecalis [15]) of 11 h. It also gave a PAE (Haemophilus influenzae [16]) of 7.9 h, a PAE (Enterococcus faecalis [17]) of 10.5 h and a PAE (Haemophilus influenzae [18]) of 4.7 h. The PAE (Streptococcus pneumoniae [19]) was 5.9 h, the PAE (Acinetobacter baumannii [20]) was 0.3 h and the PAE (Klebsiella pneumoniae [21]) was 0.1 h. The PAE (Escherichia coli [22]) was 0 h, the PAE (Streptococcus pneumoniae [23]) was 0.5 h and the PAE (Streptococcus pneumoniae [24]) was 1.9 h. It also gave a PAE (Enterobacter cloacae [25]) of 1 h, a PAE (Haemophilus influenzae [26]) of 3.9 h and a PAE (Haemophilus influenzae [27]) of 1.1 h. The PAE (Streptococcus pneumoniae [28]) was 4.8 h, the MIC (Acinetobacter baumannii [29]) was 2 µg/mL (≈ 3.41 µM) and the MIC (Staphylococcus aureus [30]) was 0.12 µg/mL (≈ 0.205 µM). The PAE (Escherichia coli [31]) was 3.3 h, the PAE (Acinetobacter baumannii [32]) was 11.2 h and the PAE (Enterococcus faecalis [33]) was 1 h. For the same compound, the PAE (Klebsiella pneumoniae [34]) was 2 h and the half-life [35] was 40 h.
